Experimental data published in US20130303460A1, “PEPTIDES AND COMPOSITIONS FOR THE TREATMENT OF NEUROECTODERMAL DERIVED TUMORS AND RETINOBLASTOMA” (Biokine Therapeutics Ltd., priority 2011, published 2013).

Columns and labels:
Y79 Retinoblastoma cells = experiment: Survival of Y79 retinoblastoma cells (PI staining, FACS); type: cell-based, human; settings: 4, 8, 20 and 40 micromolar, 24 hr; PI staining FACS (FIG. 3)
Method: Y79: Retinoblastoma cells from primary tumor with familial history of Retinoblastoma;
All cell lines were cultured in RPMI1640 (Gibco BRL life technologies)+10% FCS, 1% L-Glutamine, 1% PS (Penicillin, Streptomycin) (Biological Industries, Kibbutz Beth Haemek, Israel) at 37° C., 5% CO2.
4F-benzoyl-TN14003 (designated BKT140) effect on Y79 Retinoblastoma cells survival.

[1] = tested on: Neuroblastoma cancer cell lines (SHY-5Y, SK-N-BE and NHH-NB-11); experiment: Neuroblastoma cell death, PI+ cells by FACS and morphological assays; type: cell-based, human; settings: 1% FCS, twenty hr, SK-N-BE and NHH-NB-11 (FIGS. 5, 6)
Method: The effect of BKT140 or AMD3100 on the proliferation of neuroblastoma cancer cell lines was tested by seeding the cells at 2×10^4 cells/1 ml per well into a 24-well plate in medium supplemented with 1% FCS. Twenty hr later the cells stained with PI (Sigma, St. Louis, Mo.), and the number of PI+cells (death cells) was determined using FACS analysis (as described above) (see, FIG. 6A).

[2] = tested on: Neuroblastoma tumor cells injected into the adrenal; experiment: Neuroblastoma tumor growth in mice, residual disease model; type: in vivo, NOD/SCID mice; settings: 300 μg per mouse from day 3 until day 30 after inoculation; residual disease model (FIG. 7)
Method: (§1) NOD/SCID mice were maintained under defined flora conditions at the Hebrew University Pathogen-Free Animal Facility. All experiments were approved by the Animal Care Committee of the Hebrew University. 10^6 Neuroblastoma tumor cells were injected into the adrenal of the mice ([…] per mouse). As control, mice were treated with PBS. Tumor growth was monitored weekly. MRI testing was performed on a horizontal 4.7 T Bruker Biospec spectrometer, using a birdcage coil.

[3] = tested on: epithelial tumor cells (e.g., breast and prostate carcinoma and glioblastoma); experiment: Effect on epithelial tumor cells; type: cell-based; settings: summary statement, example not given
[4] = tested on: Neuroblastoma tumor cells injected into the adrenal; experiment: Neuroblastoma tumor growth in mice, established (treatment) disease model; type: in vivo, NOD/SCID mice; settings: subcutaneously 300 μg per mouse until day 30, started when tumor size reached ~0.04 cm^2 (FIG. 8)
Method: as §1

[5] = tested on: Neuroblastoma cancer cell lines (SHY-5Y, SK-N-BE and NHH-NB-11); experiment: Neuroblastoma cell viability, CellTiter 96 AQueous Non-Radioactive Cell Proliferation Assay; type: cell-based, human; settings: 72 hours, 10% FCS; compared to other CXCR4 antagonists (e.g. AMD3100) (FIG. 4)
Method: Neuroblastoma cancer cell lines (SHY-5Y, SK-N-BE and NHH-NB-11, FIGS. 4A, 4B, and 4C, respectively) were seeded at 2×10^4 viable cells/100 μl per well into a 96-well plate in triplicates in a medium supplemented with 10% FCS and incubated with different concentrations of BKT140, PLK1, AurA or AMD3100 for 72 hours. The plate was than tested for cell viability using the CellTiter 96® AQueous Non-Radioactive Cell Proliferation Assay.

Substance: 4F-benzoyl-Arg-Arg-Nal-Cys-Tyr-Cit-Lys-DLys-Pro-Tyr-Arg-Cit-Cys-Arg-NH2 [4F-benzoyl-TN14003]
- cell death / survival of Y79 retinoblastoma cells (Y79 Retinoblastoma cells): stimulate cell death of retinoblastoma cells
- neuroblastoma cell death (PI+ cells) [1]: stimulate neuroblastoma cell death
- tumor growth [2]: delayed and in some cases inhibited tumor growth
- growth of epithelial tumor cells ([3]; breast and prostate carcinoma and glioblastoma): in some cases even stimulated the growth of epithelial tumor cells
- epithelial tumor cell death [3]: did not induce epithelial tumor cell death
- tumor growth [4]: delayed and in some cases inhibited tumor growth
- cell viability of neuroblastoma cells [5]: remarkably low cell viability
